Data: patent US12398107B2, “Fungicidal nitroanilino substituted pyrazoles” (FMC Corporation, priority 2018, dated 2025)

What was measured:
Assay type in all cases: in vivo
[1] = system: Puccinia recondita f. sp. tritici; experiment: Test B: wheat leaf rust, preventive spray on wheat seedlings; settings: 50 ppm, 100 = 100% disease control, 0 = no control relative to controls
Text: General protocol for preparing test suspensions for Tests A-F: the test compounds were first dissolved in acetone in an amount equal to 3% of the final volume and then suspended at the desired concentration (in ppm) in acetone and purified water (50/50 mix by volume) containing 250 ppm of the surfactant PEG400 (polyhydric alcohol esters). The resulting test suspensions were then used in Tests A-F. The test solution was sprayed to the point of run-off on wheat seedlings. The following day the seedlings were inoculated with a spore suspension of Puccinia recondita f. sp. tritici (the causal agent of wheat leaf rust) and incubated in a saturated atmosphere at 20° C. for 24 h, and then moved to a growth chamber at 20° C. for 7 days, after which time disease ratings were made. A rating of 100 indicates 100% disease control and a rating of 0 indicates no disease control (relative to the controls). A dash (-) indicates the compound was not tested.

Botrytis cinerea = experiment: Test E: tomato Botrytis, preventive spray on tomato seedlings; settings: 50 ppm, 100 = 100% disease control, 0 = no control
Text: (§1) General protocol for preparing test suspensions for Tests A-F: the test compounds were first dissolved in acetone in an amount equal to 3% of the final volume and then suspended at the desired concentration (in ppm) in acetone and purified water (50/50 mix by volume) containing 250 ppm of the surfactant PEG400 (polyhydric alcohol esters). The resulting test suspensions were then used in Tests A-F. The test suspension was sprayed to the point of run-off on tomato seedlings. The following day the seedlings were inoculated with a spore suspension of Botrytis cinerea (the causal agent of tomato Botrytis) and incubated in a saturated atmosphere at 20° C. for 48 h, and then moved to a growth chamber at 24° C. for 3 days, after which time visual disease ratings were made. A rating of 100 indicates 100% disease control and a rating of 0 indicates no disease control (relative to the controls). A dash (-) indicates the compound was not tested.

Phakopsora pachyrhizi = experiment: Test D: Asian soybean rust, preventive spray on soybean seedlings; settings: 50 ppm, 100 = 100% disease control, 0 = no control
Text: General protocol for preparing test suspensions for Tests A-F: the test compounds were first dissolved in acetone in an amount equal to 3% of the final volume and then suspended at the desired concentration (in ppm) in acetone and purified water (50/50 mix by volume) containing 250 ppm of the surfactant PEG400 (polyhydric alcohol esters). The resulting test suspensions were then used in Tests A-F.
The test solution was sprayed to the point of run-off on soybean seedlings. The following day the seedlings were inoculated with a spore suspension of Phakopsora pachyrhizi (the causal agent of Asian soybean rust) and incubated in a saturated atmosphere at 22° C. for 24 h and then moved to a growth chamber at 22° C. for 8 days, after which time visual disease ratings were made.
A rating of 100 indicates 100% disease control and a rating of 0 indicates no disease control (relative to the controls). A dash (-) indicates the compound was not tested.

Alternaria solani = experiment: Test F: tomato early blight, preventive spray on tomato seedlings; settings: 50 ppm, 100 = 100% disease control, 0 = no control
Text: as §1, with “Alternaria solani” for “Botrytis cinerea”, “early blight)” for “Botrytis)”, “27°” for “20°”, “20°” for “24°”

[2] = system: Blumeria graminis f. sp. tritici; experiment: Test C: wheat powdery mildew, preventive spray on wheat seedlings; settings: 50 ppm, rated after 8 days, 100 = 100% disease control, 0 = no control
Text: General protocol for preparing test suspensions for Tests A-F: the test compounds were first dissolved in acetone in an amount equal to 3% of the final volume and then suspended at the desired concentration (in ppm) in acetone and purified water (50/50 mix by volume) containing 250 ppm of the surfactant PEG400 (polyhydric alcohol esters). The resulting test suspensions were then used in Tests A-F. The test suspension was sprayed to the point of run-off on wheat seedlings. The following day the seedlings were inoculated with a spore dust of Blumeria graminis f. sp. tritici, (also known as Erysiphe graminis f. sp. tritici, the causal agent of wheat powdery mildew) and incubated in a growth chamber at 20° C. for 8 days, after which time visual disease ratings were made. A rating of 100 indicates 100% disease control and a rating of 0 indicates no disease control (relative to the controls). A dash (-) indicates the compound was not tested.

Septoria tritici = experiment: Test A: wheat leaf blotch, preventive spray on wheat seedlings; settings: 50 ppm, 100 = 100% disease control, 0 = no control relative to controls
Text: General protocol for preparing test suspensions for Tests A-F: the test compounds were first dissolved in acetone in an amount equal to 3% of the final volume and then suspended at the desired concentration (in ppm) in acetone and purified water (50/50 mix by volume) containing 250 ppm of the surfactant PEG400 (polyhydric alcohol esters). The resulting test suspensions were then used in Tests A-F. The test solution was sprayed to the point of run-off on wheat seedlings. The following day the seedlings were inoculated with a spore suspension of Septoria tritici (the causal agent of wheat leaf blotch) and incubated in a saturated atmosphere at 24° C. for 48 h, and then moved to a growth chamber at 20° C. for 17 days, after which time disease ratings were made. A rating of 100 indicates 100% disease control and a rating of 0 indicates no disease control (relative to the controls). A dash (-) indicates the compound was not tested.

Structure (SMILES)	Test B disease control rating (wheat leaf rust) [1]	Test E disease control rating (tomato Botrytis) (Botrytis cinerea)	Test D disease control rating (Asian soybean rust) (Phakopsora pachyrhizi)	Test F disease control rating (tomato early blight) (Alternaria solani)	Test C disease control rating (wheat powdery mildew) [2]	Test A disease control rating (wheat leaf blotch) (Septoria tritici)
COc1ccc(-c2c(C)nn(C)c2Nc2c(F)cccc2[N+](=O)[O-])c(Cl)c1 [Compound 27]	100%	100%	87%	99%	91%	100%
Cc1nn(C)c(Nc2ccc(OC(F)F)cc2[N+](=O)[O-])c1-c1ccc(F)cc1Cl [Compound 28]	68%	99%	0%	0%	69%	91%
Cc1nn(C)c(Nc2ccc(OCC#N)cc2[N+](=O)[O-])c1-c1ccc(F)cc1Cl [Compound 29]	98%	99%	81%	26%	87%	97%
Cc1cc(Cl)c(Nc2c(-c3ccc(F)cc3Cl)c(C)nn2C)c([N+](=O)[O-])c1 [Compound 31]	100%	99%	98%	76%	100%	100%
Cc1nn(C)c(Nc2cc(F)c(F)cc2[N+](=O)[O-])c1-c1ccc(F)cc1Cl [Compound 32]	85%	99%	98%	0%	56%	93%
Cc1cc(Cl)cc([N+](=O)[O-])c1Nc1c(-c2ccc(F)cc2Cl)c(C)nn1C [Compound 33]	100%	99%	92%	85%	99%	100%
Cc1nn(C)c(Nc2cccc(Cl)c2[N+](=O)[O-])c1-c1ccc(F)cc1Cl [Compound 34]	54%	71%	0%	0%	13%	100%
COc1ccc(-c2c(C)nn(C)c2Nc2c(Cl)cccc2[N+](=O)[O-])c(C)c1 [Compound 35]	85%	0%	0%	0%	0%	99%
Cc1nn(C)c(Nc2ccc(OCC(F)F)cc2[N+](=O)[O-])c1-c1ccc(F)cc1Cl [Compound 36]	89%	100%	25%	0%	56%	100%
Cc1nn(C)c(Nc2c(Cl)cc(Cl)cc2[N+](=O)[O-])c1-c1ccc(F)cc1Br [Compound 37]	100%	88%	0%	78%	98%	100%
Cc1nn(C)c(Nc2c(Cl)cccc2[N+](=O)[O-])c1-c1c(F)cccc1Cl [Compound 38]	99%	88%	0%	0%	95%	100%
Cc1nn(C)c(Nc2c(F)cc(F)cc2[N+](=O)[O-])c1-c1c(F)cccc1Cl [Compound 39]	100%	88%	73%	99%	99%	100%
Cc1cc(F)c(Nc2c(-c3ccc(F)cc3Br)c(C)nn2C)c([N+](=O)[O-])c1 [Compound 40]	100%	98%	82%	100%	100%	100%
Cc1nn(C)c(Nc2c(Cl)cccc2[N+](=O)[O-])c1-c1ccc(F)cc1Br [Compound 41]	100%	77%	77%	0%	94%	100%
Cc1cccc([N+](=O)[O-])c1Nc1c(-c2ccc(F)cc2Br)c(C)nn1C [Compound 42]	100%	91%	0%	0%	96%	100%
Cc1nn(C)c(Nc2c(Cl)cc(F)cc2[N+](=O)[O-])c1-c1ccc(F)cc1Br [Compound 43]	100%	96%	65%	64%	97%	100%
Cc1nn(C)c(Nc2ccc(F)cc2[N+](=O)[O-])c1-c1c(F)cccc1Cl [Compound 44]	99%	95%	0%	46%	98%	100%
